{"source": "patent US20090105155A1", "about": "“TRUNCATED LHRH FORMULATIONS” (priority 2004, published 2009)", "type_in_all_cases": "in vivo", "key": {"LHRH [1]": {"tested_on": "LHRH", "assay": "Anti-LHRH antibody titres induced by different priming and boosting regimes (Example 2)", "conditions": "Beagles/foxhound dogs, 5 nmoles total peptides (pool p25, p35, p62) with Iscomatrix; for titres of antibodies following the second dose of vaccine: doses week 0, 4, 14, LHRH (2-10) compared with LHRH (6-10)", "from_the_text": "(§1) Beagles/foxhound dogs were divided into three groups. One group (12 dogs) received three doses of 5 nmoles of total peptides consisting of a pool of peptides p25, p35 and p62 coupled to LHRH (6-10).\n(§2) A second group (6 dogs) received three doses of 5 nmoles of total peptides consisting of a pool of peptides p25, p35 and p62 coupled to LHRH (2-10).\n(§3) A third group (6 dogs) received three doses of 5 nmoles of total peptides consisting of a pool of peptides p25, p35 and p62 coupled to LHRH (2-10) as the first dose. For the second and third dose the vaccine was the same pool of peptides but coupled to LHRH (6-10).\n(§4) The dogs received the three doses of vaccine in week 0, 4 and 14 respectively.\n(§5) 1 to 1.5 mg of each of the peptides were weighed out and dissolved in 100 ul of 4 M urea separately. The amounts of the solutions corresponding to 1.7 nmoles of each peptide were mixed and diluted with isotonic saline to the designated dose volume for injection (1 ml per dose). For each dose 150 ug of Iscomatrix•® (CSL, Melbourne, Australia) was also added as adjuvant. The vaccine was given to dogs in the scruff of the neck."}, "LHRH [2]": {"tested_on": "LHRH", "assay": "Testosterone and progesterone levels following vaccination with LHRH (6-10) or LHRH (4-10) (Example 3)", "conditions": "Beagles/foxhound dogs, 35 nmoles total peptides, 7-peptide pool with Iscomatrix; for hormone breakthrough: testosterone and progesterone", "procedure": "(§6) Beagles/foxhound dogs were divided into two groups. One group (15 dogs) received three doses of 35 nmoles of total peptides consisting of a pool of peptides p4, p10, p24, p25, p27, p35 and p62 coupled to LHRH (6-10).\n(§7) A second group (15 dogs) received three doses of 35 nmoles of total peptides consisting of a pool of peptides p4, p10, p24, p25, p27, p35 and p62 coupled to LHRH (4-10).\nas §4\nas §5, with “5” for “1.7”"}, "LHRH [3]": {"tested_on": "LHRH", "assay": "Anti-LHRH antibody titres induced by LHRH (6-10) and LHRH (4-10) (Example 3)", "conditions": "Beagles/foxhound dogs; 35 nmoles total peptides (pool p4, p10, p24, p25, p27, p35, p62) with Iscomatrix; week 0, 4, 14; compared with LHRH (6-10)", "procedure": "as §6, §7, §4\nas §5, with “5” for “1.7”"}, "LHRH [4]": {"tested_on": "LHRH", "assay": "Testosterone and progesterone levels in vaccinated dogs (Example 2)", "conditions": "Beagles/foxhound dogs; two doses; proportion of animals, compared with the other regimes", "from_the_text": "as §1, §2, §3, §4, §5"}}, "note": "Where no end group is shown, it is not given here.", "data": [{"substance": "LHRH (2-10)-LHRH (6-10): Regime: p25, p35, p62 pool coupled to LHRH (2-10) as first dose, same pool coupled to LHRH (6-10) for second and third dose (HWSYGLRPG; ends and bridges not checked; also: coupled to T helper peptide pool; UniProt P01148 25-33, looked up, fragment)", "values": [{"measurement": "titre in the primary antibody response", "setting": "LHRH [1]; comparison of the three regimes", "result": "lowest titres"}]}, {"substance": "LHRH (2-10): Vaccine: pool of peptides p25, p35 and p62 coupled to LHRH (2-10), with Iscomatrix adjuvant (HWSYGLRPG; ends and bridges not checked; also: coupled to T helper peptide pool; UniProt P01148 25-33, looked up, fragment)", "values": [{"measurement": "titres of antibodies following the second dose of vaccine", "setting": "LHRH [1]", "result": "little apparent difference"}]}, {"substance": "LHRH (4-10): Vaccine: pool of peptides p4, p10, p24, p25, p27, p35 and p62 coupled to LHRH (4-10) (SYGLRPG), with Iscomatrix adjuvant", "values": [{"measurement": "effect on progesterone levels", "setting": "LHRH [2]; compared with LHRH (6-10)", "result": "more striking effect"}, {"measurement": "effect on testosterone levels", "setting": "LHRH [2]; compared with LHRH (6-10)", "result": "more striking effect"}, {"measurement": "hormone breakthrough", "setting": "LHRH [2]", "result": "no animals show hormone breakthrough"}, {"measurement": "titres of antibodies", "setting": "LHRH [3]", "result": "Higher titres"}]}, {"substance": "LHRH (6-10): Vaccine: T helper epitope peptides coupled to LHRH (6-10), Iscomatrix; pool p25, p35, p62 (Example 2) or seven-peptide pool (Example 3) (GLRPG; ends and bridges not checked; also: coupled to T helper peptide pool; UniProt P01148 29-33, looked up, fragment)", "values": [{"measurement": "titres of antibodies following the second dose of vaccine", "setting": "LHRH [1]", "result": "little apparent difference"}, {"measurement": "hormone breakthrough", "setting": "LHRH [2]", "result": "hormone breakthrough"}, {"measurement": "levels of progesterone", "setting": "LHRH [4]", "result": "lower levels"}, {"measurement": "levels of testosterone", "setting": "LHRH [4]", "result": "lower levels"}]}]}
